Experimental data reported in patent publication US20230150970A1, “AMINOPYRIMIDINE DERIVATIVES AND THEIR USE AS ARYL HYDROCARBON RECEPTOR MODULATORS” (DONG-A ST CO., LTD., priority 2020, published 2023).
pIC50: −log10 of the molar value. Like-named read-outs stand apart in the source and are kept apart here.

Biological target: T1, AhR (Homo sapiens, UniProt P35869)
T1 sequence (P35869 11-848): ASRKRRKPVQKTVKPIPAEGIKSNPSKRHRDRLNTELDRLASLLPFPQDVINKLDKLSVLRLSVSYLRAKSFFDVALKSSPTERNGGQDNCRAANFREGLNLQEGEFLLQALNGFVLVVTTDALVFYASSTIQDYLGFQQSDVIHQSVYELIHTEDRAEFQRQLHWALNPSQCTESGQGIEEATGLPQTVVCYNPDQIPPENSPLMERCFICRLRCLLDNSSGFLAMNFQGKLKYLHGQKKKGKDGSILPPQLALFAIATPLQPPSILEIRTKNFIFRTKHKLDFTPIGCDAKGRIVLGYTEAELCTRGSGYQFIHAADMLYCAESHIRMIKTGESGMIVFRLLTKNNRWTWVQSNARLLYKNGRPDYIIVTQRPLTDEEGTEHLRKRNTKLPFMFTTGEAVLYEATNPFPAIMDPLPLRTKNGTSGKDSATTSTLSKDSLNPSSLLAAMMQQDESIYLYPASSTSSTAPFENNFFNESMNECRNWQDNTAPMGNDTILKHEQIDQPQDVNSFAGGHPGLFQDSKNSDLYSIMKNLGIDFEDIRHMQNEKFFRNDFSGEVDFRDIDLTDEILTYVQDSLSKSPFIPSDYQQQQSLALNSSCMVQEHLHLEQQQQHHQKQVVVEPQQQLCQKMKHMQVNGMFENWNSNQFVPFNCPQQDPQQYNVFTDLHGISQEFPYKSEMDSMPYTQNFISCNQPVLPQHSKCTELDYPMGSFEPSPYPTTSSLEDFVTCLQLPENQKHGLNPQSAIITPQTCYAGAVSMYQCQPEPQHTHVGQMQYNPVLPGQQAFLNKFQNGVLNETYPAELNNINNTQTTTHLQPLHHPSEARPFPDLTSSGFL
Test: In Vitro Assay 1: XRE-luciferase reporter assay, antagonism in human cell line (HepG2)
Details: for IC50: Assay 1: AhR-Luc Human Antagonism (IC50, nM), unmarked values: kynurenine 200 μM, 6 hours
Excerpt: In Vitro XRE-Luciferase Reporter Assay (In Vitro Assay 1, 2, 3) AhR activation leads the induction of target gene expression such as CYP1A1 and CYPIB1 by AhR binding to AhR-responsive DNA elements also known as xenobiotics responsive elements (XREs). The assay for measuring AhR activity herein is the luciferase assay using cell lines transfected with luciferase reporter plasmid containing XREs at the upstream of the reporter gene. Cells transfected with XRE-luciferase reporter (XRE-Luc), plasmid drive luciferase activity reflecting activation and inhibition of AhR in the cells. […] Kynurenine (an endogenous AhR agonist), was used to stimulate cells to test antagonistic properties of the compounds. The half-maximal inhibitory concentration (IC50), or half-maximal effective concentration (EC50), value was calculated using nonlinear regression (four parameters), with Prism8.0 software (GraphPad).
In Vitro Assay 1: Antagonism in Human Cell Line
HepG2 (human hepatoma cell line) cell line with a XRE-luciferase reporter either transiently or stably (Invivogen) were plated in complete medium and incubated at 37° C. in a CO2 incubator. After 24 hours, cells were treated with kynurenine (50* or 200 μM) alone (negative control) or with test compounds for 6 hours. Luciferase activity was measured with a commercial kit such as the Promega Luciferase kit or Invivogen Luciferase kit. Relative luciferase activity (Firefly/Nano-Luc) was used to calculate IC50 values. […] (IC50 values are grouped as A, B, C and D, whereby A: IC50<0.01 μM; B: 0.01<IC50<0.1 μM; C: 0.1<IC50<1.0 μM; D: IC50>1.0 μM)

SMILES	IC50 [nM]	pIC50 (read-out: Assay 1: AhR-Luc Human Antagonism (IC50), unmarked values: kynurenine 200 μM, 6 hours)
OC[C@@H]1CN(c2cc(-c3ccc(C(F)(F)F)cc3)nc(-c3cccnc3)n2)CCO1 [Example 279, (S)-(4-(2-(pyridin-3-yl)-6-(4-(trifluoromethyl)phenyl)pyrimidin-4-yl)morpholin-2-yl)methanol]	< 10	–
OC[C@@H]1CCN(c2cc(-c3ccc(C(F)(F)F)cc3)nc(-c3cccnc3)n2)C[C@H]1F [Example 281, ((3S,4S)-3-fluoro-1-(2-(pyridin-3-yl)-6-(4-(trifluoromethyl)phenyl)pyrimidin-4-yl)piperidin-4-yl)methanol]	< 10	–
O[C@H]1CN(c2cc(-c3ccc(Cl)cc3)nc(-c3cccnc3)n2)C[C@@H]1O [Example 284, (3S,4S)-1-(6-(4-chlorophenyl)-2-(pyridin-3-yl)pyrimidin-4-yl)pyrrolidine-3,4-diol]	< 10	–
OCC1CCN(c2cc(-c3ccc(N4CCOCC4)cc3)nc(-c3cccnc3O)n2)CC1 [Example 285, 3-(4-(4-(hydroxymethyl)piperidin-1-yl)-6-(4-morpholinophenyl)pyrimidin-2-yl)pyridin-2-ol]	10 to 100	–
Cn1cc(-c2nc(-c3ccc(N4CCOCC4)cc3)cc(N3CCC(CO)CC3)n2)cn1 [Example 286, (1-(2-(1-methyl-1H-pyrazol-4-yl)-6-(4-morpholinophenyl)pyrimidin-4-yl)piperidin-4-yl)methanol]	100 to 1000	–
Cn1cc(-c2nc(-c3ccc(N4CCOCC4)c(F)c3)cc(N3CCC(CO)CC3)n2)cn1 [Example 287, (1-(6-(3-fluoro-4-morpholinophenyl)-2-(1-methyl-1H-pyrazol-4-yl)pyrimidin-4-yl)piperidin-4-yl)methanol]	100 to 1000	–
OCC1CCN(c2cc(-c3ccc4[nH]ncc4c3)nc(-c3cccnc3)n2)CC1 [Example 288, (1-(6-(1H-indazol-5-yl)-2-(pyridin-3-yl)pyrimidin-4-yl)piperidin-4-yl)methanol]	100 to 1000	–
O=C1Cc2cc(-c3cc(N4CCC(CO)CC4)nc(-c4cccnc4)n3)ccc2N1 [Example 290, 5-(6-(4-(hydroxymethyl)piperidin-1-yl)-2-(pyridin-3-yl)pyrimidin-4-yl)indolin-2-one]	> 1000	–
O=C1COCCN1c1ccc(-c2cc(N3CCC(CO)CC3)nc(-c3cccnc3)n2)cc1 [Example 291, 4-(4-(6-(4-(hydroxymethyl)piperidin-1-yl)-2-(pyridin-3-yl)pyrimidin-4-yl)phenyl)morpholin-3-one]	> 1000	–
O=C(O)c1ccc(-c2cc(N3CCC(CO)CC3)nc(-c3cccnc3)n2)cc1 [Example 292, 4-(6-(4-(hydroxymethyl)piperidin-1-yl)-2-(pyridin-3-yl)pyrimidin-4-yl)benzoic acid]	> 1000	–
Cn1ccc(-c2cc(N3CCC(CO)CC3)nc(-c3cccnc3)n2)n1 [Example 293, 4 (1-(6-(1-methyl-1H-pyrazol-3-yl)-2-(pyridin-3-yl)pyrimidin-4-yl)piperidin-4-yl)methanol]	–	< 6.00
OCC1CCN(c2cc(-c3cncc(F)c3)nc(-c3cccnc3)n2)CC1 [Example 294, (1-(6-(5-fluoropyridin-3-yl)-2-(pyridin-3-yl)pyrimidin-4-yl)piperidin-4-yl)methanol]	100 to 1000	–
Oc1ncccc1-c1nc(-c2ccc(N3CCOCC3)nc2)cc(N2CC[C@H](O)C2)n1 [Example 295, (S)-3-(4-(3-hydroxypyrrolidin-1-yl)-6-(6-morpholinopyridin-3-yl)pyrimidin-2-yl)pyridin-2-ol]	> 1000	–
O=[N+]([O-])c1cc(-c2cc(N3CC[C@H](O)C3)nc(-c3cccnc3)n2)ccc1F [Example 296, (S)-1-(6-(4-fluoro-3-nitrophenyl)-2-(pyridin-3-yl)pyrimidin-4-yl)pyrrolidin-3-ol]	> 1000	–
O=[N+]([O-])c1cc(-c2cc(N3CC[C@H](O)C3)nc(-c3cccnc3)n2)ccc1N1CCOCC1 [Example 297, (S)-1-(6-(4-morpholino-3-nitrophenyl)-2-(pyridin-3-yl)pyrimidin-4-yl)pyrrolidin-3-ol]	> 1000	–
